Key:
[1] = Body weight change in the H460 xenograft study; type: in vivo, CD-1 nude mice; details: 28-day period; Pemetrexed i.p. 200 mg/kg, Lucanthone oral 80 mg/kg, once every 4 days x7; vehicles −2.9%
Method: (§1) Methods: Groups of CD-1 nude mice were xenografted subcutaneously with human H460 non-small cell lung carcinoma cells. Treatments were initiated when tumor growth reached approximately 130 mm^3. Treatments were administered 7 times at frequency of once every 4 days and included vehicles, Pemetrexed given intraperitoneally at 200 mg/kg, Lucanthone given orally at 80 mg/kg, and the combinations of Pemetrexed and Lucanthone at the same doses. The tumor growths and body weight change were followed for 28 days.

[2] = test system: human H460 non-small cell lung carcinoma cells; test: H460 non-small cell lung carcinoma xenograft tumor growth in CD-1 nude mice; type: in vivo; details: 28 days, 7 treatments once every 4 days, Pemetrexed i.p. 200 mg/kg, Lucanthone oral 80 mg/kg
Method: as §1

## Nc1nc2[nH]cc(CCc3ccc(C(=O)N[C@@H](CCC(=O)O)C(=O)O)cc3)c2c(=O)[nH]1 [Pemetrexed, N-[4-[2-(2-amino-4,7-dihydro-4-oxo-1H-pyrrolo[2,3-d]pyrimidin-5-yl)ethyl]-benzoyl]-L-glutamic acid]
[1]
  body weight changes excluding the tumor weights: −0.9%
[2]
  growth inhibition compared to the vehicle-treated group: 33%
[2]; vehicles 42
  fold of increases of the tumor volume: 28 fold
